“And” between values parts separate entries of the source, which are not always exact repeats. Equal values may be shown once.
Details: for vapor or sublimation pressure: Closed cell (Static) method

COC(F)(F)F [trifluoromethoxymethane]
Details	mass density [kg/m3]
290 K, 4029.3 kPa, Liquid	1136.09
290 K, 4505 kPa, Liquid	1138.14
290 K, 4999.6 kPa, Liquid	1140.25
290 K, 5546.1 kPa, Liquid	1142.55
290 K, 6046.4 kPa, Liquid	1144.61
290 K, 6496.3 kPa, Liquid	1146.42
290 K, 6981.5 kPa, Liquid	1148.28
300 K, 31.3 kPa, Gas	1.25
300 K, 46.2 kPa, Gas	1.89
300 K, 68 kPa, Gas	2.77
300 K, 100.1 kPa, Gas	4.12
300 K, 146.6 kPa, Gas	6.12
300 K, 214 kPa, Gas	9.08
300 K, 306.3 kPa, Gas	13.34
300 K, 439.5 kPa, Gas	19.94
300 K, 589.3 kPa, Gas	28.11
300 K, 617 kPa, Liquid	1086.54
300 K, 658.2 kPa, Liquid	1086.45
300 K, 913.6 kPa, Liquid	1088.34
300 K, 1058.4 kPa, Liquid	1088.91
300 K, 1466.6 kPa, Liquid	1091.63
300 K, 1522.9 kPa, Liquid	1091.63
300 K, 1998.6 kPa, Liquid	1094.68
300 K, 2016.1 kPa, Liquid	1094.48
300 K, 2526.4 kPa, Liquid	1097.64
300 K, 2545.5 kPa, Liquid	1097.41
300 K, 3023.5 kPa, Liquid	1100.35
300 K, 3063.2 kPa, Liquid	1100.24
300 K, 3486.7 kPa, Liquid	1102.83
300 K, 3535.6 kPa, Liquid	1102.72
300 K, 4015.2 kPa, Liquid	1105.57
300 K, 4063.9 kPa, Liquid	1105.45
300 K, 4499.8 kPa, Liquid	1108.05
300 K, 4569.3 kPa, Liquid	1107.99
300 K, 5014.6 kPa, Liquid	1110.58
300 K, 5140.6 kPa, Liquid	1110.81
300 K, 5517 kPa, Liquid	1113.05
300 K, 5669.7 kPa, Liquid	1113.35
300 K, 6023 kPa, Liquid	1115.44
300 K, 6155.2 kPa, Liquid	1115.66
300 K, 6499 kPa, Liquid	1117.65
300 K, 6683.2 kPa, Liquid	1118.07
300 K, 6960.3 kPa, Liquid	1119.71
300 K, 7091.7 kPa, Liquid	1119.94
310 K, 38.3 kPa, Gas	1.49
310 K, 56.5 kPa, Gas	2.22
310 K, 83.1 kPa, Gas	3.29
310 K, 121.9 kPa, Gas	4.87
310 K, 178.2 kPa, Gas	7.22
310 K, 258.9 kPa, Gas	10.69
310 K, 372.5 kPa, Gas	15.8
310 K, 528.4 kPa, Gas	23.4
310 K, 742.6 kPa, Gas	35.17
310 K, 813.1 kPa, Liquid	1051.26
310 K, 836.7 kPa, Liquid	1051.44
310 K, 861.7 kPa, Liquid	1051.63
310 K, 1006.3 kPa, Liquid	1053.19
310 K, 1033.6 kPa, Liquid	1052.9
310 K, 1512.4 kPa, Liquid	1056.88
310 K, 1533.9 kPa, Liquid	1056.54
310 K, 2000.5 kPa, Liquid	1060.31
310 K, 2046.2 kPa, Liquid	1060.13
310 K, 2498.6 kPa, Liquid	1063.7
310 K, 2539.9 kPa, Liquid	1063.48
310 K, 3027.3 kPa, Liquid	1067.18
310 K, 3099.5 kPa, Liquid	1067.15
310 K, 3517 kPa, Liquid	1070.31
310 K, 3564.5 kPa, Liquid	1070.1
310 K, 4017.7 kPa, Liquid	1073.4
310 K, 4131.5 kPa, Liquid	1073.59
310 K, 4531.7 kPa, Liquid	1076.5
310 K, 5049.8 kPa, Liquid	1079.54
310 K, 5149.7 kPa, Liquid	1079.59
310 K, 5542 kPa, Liquid	1082.34
310 K, 5630.8 kPa, Liquid	1082.31
310 K, 6021.1 kPa, Liquid	1085.02
310 K, 6210.4 kPa, Liquid	1085.5
310 K, 6538.6 kPa, Liquid	1087.83
310 K, 6998 kPa, Liquid	1090.22
310 K, 7191.1 kPa, Liquid	1090.69
320 K, 46.4 kPa, Gas	1.77
320 K, 68.4 kPa, Gas	2.64
320 K, 100.6 kPa, Gas	3.89
320 K, 147.5 kPa, Gas	5.74
320 K, 215.4 kPa, Gas	8.49
320 K, 312.9 kPa, Gas	12.57

Liquid
Details	mass density	vapor or sublimation pressure
290 K	1119.31 kg/m3	–
300 K	1086.15 kg/m3 and 1086.47 kg/m3 and 1086.56 kg/m3	607.7 kPa and 607.3 kPa
305 K	–	698.7 kPa
310 K	1054.67 kg/m3 [middle of 4 runs]	800.9 kPa and 800.7 kPa and 801.7 kPa
315 K	–	914.3 kPa

Gas, Burnett expansion method
Details	mass density [kg/m3]
300 K, 124.2 kPa	5.136
300 K, 170.5 kPa	7.128
300 K, 183.4 kPa	7.703
300 K, 251.4 kPa	10.75
300 K, 268.7 kPa	11.56
300 K, 364.7 kPa	16.13
300 K, 388.1 kPa	17.29
300 K, 519.4 kPa	24.16
300 K, 550.3 kPa	25.89
310 K, 128.7 kPa	5.137
310 K, 177.1 kPa	7.139
310 K, 190.3 kPa	7.705
310 K, 261 kPa	10.74
310 K, 279.4 kPa	11.56
310 K, 380.4 kPa	16.14
310 K, 405 kPa	17.3
310 K, 545.9 kPa	24.27
310 K, 578.6 kPa	25.97
310 K, 759.9 kPa	36.24
320 K, 133.1 kPa	5.135
320 K, 183.4 kPa	7.139
320 K, 197.1 kPa	7.701
320 K, 270.9 kPa	10.74
320 K, 289.9 kPa	11.55
320 K, 395.7 kPa	16.14

— the NIST ThermoML archive (doi:10.1021/je025657+)
